Results taken from patent US20240124503A1, “HETEROAROMATIC PHOSPHONIUM SALTS AND THEIR USE TREATING CANCER” (FLORATEK PHARMA S.A., priority 2021, published 2024).

Key:
[1] = biological target: T1, KIT(D816V) (Homo sapiens, UniProt P10721, D816V); assay: KINOMEscan competition binding, KIT(D816V)
T1 construct: purchased Eurofins (KINOMEscan); host or cells: E. coli BL21-derived host (T7 phage) or HEK-293
Procedure: (§1) Selected compounds were screened for kinase inhibition using the KINOMEscan™ assay (Eurofins) which is based on a competition binding assay that quantitatively measures the ability of a compound to compete with an immobilized, active-site directed ligand. The assay was performed by combining three components: DNA-tagged kinase; immobilized ligand; and the test compound. The ability of the test compound to compete with the immobilized ligand was measured via quantitative PCR of the DNA tag.
(§2) Kinase-tagged T7 phage strains were prepared in an E. coli host derived from the BL21 strain. E. coli were grown to log-phase and infected with T7 phage and incubated with shaking at 32° C. until lysis. The lysates were centrifuged and filtered to remove cell debris. The remaining kinases were produced in HEK-293 cells and subsequently tagged with DNA for qPCR detection. Streptavidin-coated magnetic beads were treated with biotinylated small molecule ligands for 30 minutes at room temperature to generate affinity resins for kinase assays. […] Kds were determined using an 11-point 3-fold compound dilution series with three DMSO control points. […] The kinase concentration in the eluates was measured by qPCR. […]
(§3) Binding constants (Kds) were calculated with a standard dose-response curve using the Hill equation: Response=Background+[Signal−Background/1+(Kd^Hill Slope/Dose^Hill Slope)] […]

[2] = test system: MDA-MB-436; assay: Cell viability assay, MDA-MB-436; assay type: cell-based; conditions: Homo sapiens; breast carcinoma cell line MDA-MB-436
Procedure: (§4) Antitumor activity of the compounds and doxorubicin as a positive control was assessed by using the CellTiter-Blue Cell Viability Assay (Promega, #G8082) or CellTiter-Glow® Luminescent Cell Viability assay (Promega #G7572) according to the manufacturer's instructions. The compounds were tested at 5 or 6 concentrations in half-log increments (highest concentration 30 μM or 100 μM) in duplicate or triplicate well conditions.
(§5) Tumor cells were grown at 37° C. in a humidified atmosphere with 5% CO2 in RPMI 1640 or DMEM medium, supplemented with 10% (v/v) fetal calf serum and 50 μg/ml gentamicin for up to 20 passages, and were passaged once or twice weekly. Cells were harvested using TrypLE or PBS buffer containing 1 mM EDTA, and the percentage of viable cells was determined using a CASY Model TI cell counter (OMNI Life Science). Cells were harvested from exponential phase cultures, counted and plated in 96 well flat-bottom microtiter plates at a cell density depending on the cell line's growth rate (4,000-20,000 cells/well depending on the cell line's growth rate, up to 60,000 for hematological cancer cell lines) in RPMI 1640 or DMEM medium supplemented with 10% (v/v) fetal calf serum and 50 μg/ml gentamicin (140 μl/well). […] Viability of cells was quantified by the CellTiter-Blue® cell viability assay (Promega G8081) or CellTiter-Glow® Luminescent Cell Viability assay (Promega #G7572). […]

[3] = biological target: T2, CDK11 (Homo sapiens, UniProt Q9BWU1); assay: KINOMEscan competition binding, CDK11
T2 construct: purchased Eurofins (KINOMEscan); host or cells: E. coli BL21-derived host (T7 phage) or HEK-293
Procedure: as §1, §2, §3

[4] = test system: ZR-75-1; assay: Cell viability assay, ZR-75-1; assay type: cell-based; conditions: Homo sapiens; breast carcinoma cell line ZR-75-1
Procedure: as §4, §5

T2 sequence (Q9BWU1 whole entry): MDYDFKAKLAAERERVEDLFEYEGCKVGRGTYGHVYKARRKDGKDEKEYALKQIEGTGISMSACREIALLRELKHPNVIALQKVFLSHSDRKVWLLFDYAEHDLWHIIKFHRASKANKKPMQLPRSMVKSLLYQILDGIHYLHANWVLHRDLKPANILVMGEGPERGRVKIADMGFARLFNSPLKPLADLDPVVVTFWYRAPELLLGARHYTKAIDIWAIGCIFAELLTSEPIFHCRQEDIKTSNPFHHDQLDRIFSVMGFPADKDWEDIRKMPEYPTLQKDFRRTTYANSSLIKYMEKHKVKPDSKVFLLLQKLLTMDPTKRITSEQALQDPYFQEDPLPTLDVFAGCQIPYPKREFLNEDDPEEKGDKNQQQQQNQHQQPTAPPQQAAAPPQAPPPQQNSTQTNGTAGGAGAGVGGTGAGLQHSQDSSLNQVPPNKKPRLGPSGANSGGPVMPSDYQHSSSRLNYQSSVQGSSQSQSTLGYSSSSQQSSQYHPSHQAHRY
T1 sequence (P10721 26-976 D816V): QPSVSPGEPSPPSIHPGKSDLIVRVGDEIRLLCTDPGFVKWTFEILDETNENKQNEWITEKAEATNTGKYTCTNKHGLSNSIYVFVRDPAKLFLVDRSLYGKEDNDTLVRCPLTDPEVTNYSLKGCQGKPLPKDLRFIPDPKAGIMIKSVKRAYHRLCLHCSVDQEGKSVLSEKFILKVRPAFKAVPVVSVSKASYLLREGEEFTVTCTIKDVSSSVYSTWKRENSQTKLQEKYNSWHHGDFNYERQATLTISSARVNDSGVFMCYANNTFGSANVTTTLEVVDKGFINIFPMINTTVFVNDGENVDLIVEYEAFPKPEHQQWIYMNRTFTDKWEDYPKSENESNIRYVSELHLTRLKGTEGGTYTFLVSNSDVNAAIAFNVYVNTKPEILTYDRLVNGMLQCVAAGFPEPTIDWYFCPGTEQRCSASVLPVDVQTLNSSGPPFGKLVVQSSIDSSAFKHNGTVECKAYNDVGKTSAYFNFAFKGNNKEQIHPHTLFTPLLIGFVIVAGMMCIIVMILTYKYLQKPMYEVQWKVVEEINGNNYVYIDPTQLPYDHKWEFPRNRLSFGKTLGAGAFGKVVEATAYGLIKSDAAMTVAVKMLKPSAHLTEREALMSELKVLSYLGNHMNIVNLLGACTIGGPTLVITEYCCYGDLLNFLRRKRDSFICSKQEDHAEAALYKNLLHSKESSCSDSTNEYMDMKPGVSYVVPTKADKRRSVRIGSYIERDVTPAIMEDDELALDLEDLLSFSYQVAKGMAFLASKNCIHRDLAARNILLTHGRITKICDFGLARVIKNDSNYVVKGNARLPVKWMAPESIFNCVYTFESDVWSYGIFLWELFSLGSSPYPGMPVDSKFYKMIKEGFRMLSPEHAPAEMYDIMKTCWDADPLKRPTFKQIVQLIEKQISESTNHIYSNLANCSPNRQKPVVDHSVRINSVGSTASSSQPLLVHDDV

- Kd [1]: 0.93 µM
- IC50 [2]: 2.9 µM
- Kd [3]: 3.6 µM
Structure (SMILES): COc1c(O)ccc2c(=O)c(O)c(-c3ccc(CCCC[P+](c4ccccc4)(c4ccccc4)c4ccccc4)cc3)oc12 [SND190, (4-(4-(3,7-Dihydroxy-8-methoxy-4-oxo-4H1-chromen-2-yl)phenyl)butyl)triphenylphosphonium bromide]
- IC50 [4]: 3.5 µM
